Measurements published in patent US9073940B2, “Tricyclic pyrazol amine derivatives” (MERCK SERONO SA, priority 2009, dated 2015).

System: 4 PI3K isoforms (Human recombinant GST-PI3K)
Assay: PI3K scintillation proximity assay, best IC50 obtained with the four isoforms (alpha, beta, delta, gamma)
Format: biochemical
Conditions: best IC50 obtained with the four isoforms of PI3K; read-out: Best potency measured on the 4 PI3K isoforms

Row | Compound | IC50 [nM]
1 | COc1ccc2c(c1)S(=O)(=O)Cc1c(C(=O)N3CCOCC3)nn([C@H]3CCCN(CCN4CC(F)(F)C4)C3)c1-2 (single isomer, unassigned) [Example 382, 1-{1-[2-(3,3-difluoroazetidin-1-yl)ethyl]piperidin-3-yl}-7-methoxy-3-(morpholin-4-ylcarbonyl)-1,4-dihydrothiochromeno[4,3-c]pyrazole 5,5-dioxide] | 15
2 | COc1ccc2c(c1)S(=O)(=O)Cc1c(C(=O)N3CCOCC3)nn([C@H]3CCCN(CCN4CCOCC4)C3)c1-2 (single isomer, unassigned) [Example 383, 7-methoxy-3-(morpholin-4-ylcarbonyl)-1-[1-(2-morpholin-4-ylethyl)piperidin-3-yl]-1,4-dihydrothiochromeno[4,3-c]pyrazole 5,5-dioxide] | 24
3 | COc1ccc2c(c1)S(=O)(=O)Cc1c(C(=O)N3CCOCC3)nn([C@H]3CCCN(CCN4CCC(F)CC4)C3)c1-2 (single isomer, unassigned) [Example 384, 1-{1-[2-(4-fluoropiperidin-1-yl)ethyl]piperidin-3-yl}-7-methoxy-3-(morpholin-4-ylcarbonyl)-1,4-dihydrothiochromeno[4,3-c]pyrazole 5,5-dioxide] | 19
4 | CC1CN(CCN2CCC[C@H](n3nc(C(=O)N4CCOCC4)c4c3-c3ccccc3S(=O)(=O)C4)C2)CCO1 (single isomer, unassigned) [Example 385, 1-{1-[2-(2-methylmorpholin-4-yl)ethyl]piperidin-3-yl}-3-(morpholin-4-ylcarbonyl)-1,4-dihydrothiochromeno[4,3-c]pyrazole 5,5-dioxide] | 29
5 | O=C(c1nn([C@H]2CCCN(CCN3CCOCC3)C2)c2c1CS(=O)(=O)c1c(Cl)cccc1-2)N1CCOCC1 (single isomer, unassigned) [Example 386, 6-chloro-3-(morpholin-4-ylcarbonyl)-1-[1-(2-morpholin-4-ylethyl)piperidin-3-yl]-1,4-dihydrothiochromeno[4,3-c]pyrazole 5,5-dioxide] | 30
6 | COCCN1CCC[C@H](n2nc(C(=O)N3CCOCC3)c3c2-c2ccc(OC)cc2S(=O)(=O)C3)C1 (single isomer, unassigned) [Example 394, 7-methoxy-1-[1-(2-methoxyethyl)piperidin-3-yl]-3-(morpholin-4-ylcarbonyl)-1,4-dihydrothiochromeno[4,3-c]pyrazole 5,5-dioxide] | 93
7 | O=C(c1nn([C@H]2CCN(C3CCOCC3)C2)c2c1CS(=O)(=O)c1ccccc1-2)N1CCOCC1 (single isomer, unassigned) [Example 402] | 1440
8 | O=C(c1nn([C@@H]2CCN(CCN3CCC(F)CC3)C2)c2c1CS(=O)(=O)c1ccccc1-2)N1CCOCC1 (single isomer, unassigned) [Example 409, 1-{1-[2-(4-fluoropiperidin-1-yl)ethyl]pyrrolidin-3-yl}-3-(morpholin-4-ylcarbonyl)-1,4-dihydrothiochromeno[4,3-c]pyrazole 5,5-dioxide] | 55
9 | O=C(c1nn([C@H]2CCN(CCN3CCC(F)CC3)C2)c2c1CS(=O)(=O)c1ccccc1-2)N1CCOCC1 (single isomer, unassigned) [Example 410, 1-{1-[2-(4-fluoropiperidin-1-yl)ethyl]pyrrolidin-3-yl}-3-(morpholin-4-ylcarbonyl)-1,4-dihydrothiochromeno[4,3-c]pyrazole 5,5-dioxide] | 3690
10 | O=C(c1nn([C@@H]2CCCN(CCn3ccnc3)C2)c2c1CS(=O)(=O)c1ccccc1-2)N1CCOCC1 (single isomer, unassigned) [Example 411, 1-{1-[2-(1H-imidazol-1-yl)ethyl]piperidin-3-yl}-3-(morpholin-4-ylcarbonyl)-1,4-dihydrothiochromeno[4,3-c]pyrazole 5,5-dioxide] | 444
11 | O=C(c1nn([C@H]2CCCN(CCn3ccnc3)C2)c2c1CS(=O)(=O)c1ccccc1-2)N1CCOCC1 (single isomer, unassigned) [Example 412, 1-{1-[2-(1H-imidazol-1-yl)ethyl]piperidin-3-yl}-3-(morpholin-4-ylcarbonyl)-1,4-dihydrothiochromeno[4,3-c]pyrazole 5,5-dioxide] | 5600
